Measured values as given in ChEMBL document CHEMBL1135477, “Antifungal agents. 10. New derivatives of 1-[(aryl)[4-aryl-1H-pyrrol-3-yl]methyl]-1H-imidazole, synthesis, anti-candida activity, and quantitative structure-analysis relationship studies” (J Med Chem, 2002).

Biological target: Lanosterol 14-alpha demethylase (Candida albicans (strain SC5314 / ATCC MYA-2876) (Yeast), UniProt P10613)
Test: Anticandida activity- (MIC90 compound) / (MIC90 bifonazole)
Assay type: functional

Sequence of Lanosterol 14-alpha demethylase (P10613 whole entry): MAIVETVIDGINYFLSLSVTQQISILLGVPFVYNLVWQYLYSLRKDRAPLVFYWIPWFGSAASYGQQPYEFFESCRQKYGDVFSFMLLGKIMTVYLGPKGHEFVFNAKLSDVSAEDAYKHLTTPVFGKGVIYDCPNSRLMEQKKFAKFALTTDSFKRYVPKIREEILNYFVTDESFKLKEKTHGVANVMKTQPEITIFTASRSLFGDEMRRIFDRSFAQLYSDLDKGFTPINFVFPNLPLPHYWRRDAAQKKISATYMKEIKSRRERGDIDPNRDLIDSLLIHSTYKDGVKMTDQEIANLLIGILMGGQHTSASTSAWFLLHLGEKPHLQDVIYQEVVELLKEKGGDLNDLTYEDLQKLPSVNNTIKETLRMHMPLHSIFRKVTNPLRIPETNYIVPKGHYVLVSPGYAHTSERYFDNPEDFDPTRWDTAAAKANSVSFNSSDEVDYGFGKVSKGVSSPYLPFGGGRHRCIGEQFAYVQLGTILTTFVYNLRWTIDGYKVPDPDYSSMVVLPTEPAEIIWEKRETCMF

Structure (SMILES)	Ratio
COc1ccc([C@H](Cc2cccc(-n3cccc3)c2)n2ccnc2)cc1	58
Clc1ccc(-c2cn(Cc3ccc(Cl)cc3Cl)cc2[C@@H](c2ccccc2)n2ccnc2)cc1	40
Clc1ccc(Cn2cc(-c3ccccc3)c([C@@H](c3ccccc3)n3ccnc3)c2)c(Cl)c1	22
COc1ccc(-c2cn(Cc3ccc(Cl)cc3Cl)cc2[C@@H](c2ccccc2)n2ccnc2)cc1	41
Fc1ccc(-c2c[nH]cc2[C@@H](c2ccccc2)n2ccnc2)cc1	1
Clc1ccc(-c2c[nH]cc2[C@@H](c2ccccc2)n2ccnc2)cc1	0.46
Fc1ccc([C@@H](c2ccn(-c3ccc(F)cc3)c2)n2ccnc2)cc1	1
Cc1ccc([C@H](c2ccn(-c3ccc(Cl)cc3)c2)n2ccnc2)cc1	0.89
Fc1ccc(-n2ccc([C@@H](c3ccccc3)n3ccnc3)c2)cc1	4
Cc1ccc([C@H](c2ccn(-c3ccc(F)cc3)c2)n2ccnc2)cc1	1.9
Cn1cc(-c2ccc(F)cc2)c([C@@H](c2ccccc2)n2ccnc2)c1	4
Cc1ccc(-c2cn(Cc3ccc(Cl)cc3Cl)cc2[C@@H](c2ccccc2)n2ccnc2)cc1	42
Cn1cc(-c2ccccc2)c([C@H](c2ccccc2)n2ccnc2)c1	4
Cc1ccc(-c2cn(C)cc2[C@@H](c2ccccc2)n2ccnc2)cc1	3.8
COc1ccc([C@H](Cc2ccccc2-n2cccc2)n2ccnc2)cc1	7.2
COc1ccc([C@H](Cc2ccccc2[N+](=O)[O-])n2ccnc2)cc1	123
COc1ccc([C@H](Cc2cccc(F)c2)n2ccnc2)cc1	66

Structure (SMILES)	Ratio
Cn1cc(-c2ccc(Cl)cc2)c([C@@H](c2ccccc2)n2ccnc2)c1	0.9
Fc1ccc([C@H](c2ccn(-c3ccccc3)c2)n2ccnc2)cc1	2
Fc1ccc(-n2ccc([C@H](c3ccc(Cl)cc3)n3ccnc3)c2)cc1	1.8
COc1ccc([C@H](Cc2ccc([N+](=O)[O-])cc2)n2ccnc2)cc1	32
Clc1ccc(-n2ccc([C@@H](c3ccccc3)n3ccnc3)c2)cc1	0.5
Fc1ccc([C@@H](c2ccn(-c3ccc(Cl)cc3)c2)n2ccnc2)cc1	1.8
Clc1ccc([C@@H](c2ccn(-c3ccc(Cl)cc3)c2)n2ccnc2)cc1	3
Cc1ccc([C@H](c2ccn(-c3ccccc3)c2)n2ccnc2)cc1	1
c1ccc([C@H](c2ccn(-c3ccccc3)c2)n2ccnc2)cc1	4.1
Nc1ccc([C@@H](c2ccccc2)n2ccnc2)cc1	2.5
Clc1ccc([C@@H](c2ccc(-n3cccc3)cc2)n2ccnc2)cc1	0.5
Cc1ccc([C@H](c2ccc([N+](=O)[O-])cc2)n2ccnc2)cc1	0.5
Cc1ccc([C@@H](c2ccc(NC(=O)c3ccc(Cl)cc3Cl)cc2)n2ccnc2)cc1	0.7
Cc1ccc([C@@H](c2ccc(-n3cccc3)cc2)n2ccnc2)cc1	0.13
O=[N+]([O-])c1ccc([C@@H](c2ccccc2)n2ccnc2)cc1	2.2
c1ccc([C@@H](c2ccc(-n3cccc3)cc2)n2ccnc2)cc1	0.25

Second part, the compound after the results:

Ratio	Structure (SMILES)
4	COc1ccc([C@H](Cc2ccc(Cl)cc2)n2ccnc2)cc1
3.6	COc1ccc([C@@H](Cc2ccc(Cl)cc2Cl)n2ccnc2)cc1
63	COc1ccc([C@H](Cc2ccccc2F)n2ccnc2)cc1
63	COc1ccc([C@H](Cc2ccccc2Cl)n2ccnc2)cc1
63	COc1ccc([C@H](Cc2ccc(Cl)cc2)n2cnnc2)cc1
2.1	COc1ccc([C@H](Cc2ccc(N)cc2)n2ccnc2)cc1
16	COc1ccc([C@H](Cc2ccc(F)cc2)n2ccnc2)cc1
64	COc1ccc(C[C@@H](c2ccc(OC)cc2)n2cnnc2)cc1
32	COc1ccc([C@H](Cc2cccc(Cl)c2)n2ccnc2)cc1
8	COc1ccc(C[C@@H](c2ccc(OC)cc2)n2ccnc2)cc1
1	O=[N+]([O-])c1ccc([C@@H](c2ccc(Cl)cc2)n2ccnc2)cc1
29	CCC(c1ccc(Cl)cc1)[C@@H](c1ccc(OC)cc1)n1cncn1 (stereo partly specified)
63	CC[C@@H](c1ccc(Cl)cc1)[C@@H](c1ccc(OC)cc1)n1cnnc1
62	COc1ccc([C@@H]([C@@H](Cc2ccc(Cl)cc2Cl)c2ccc(Cl)cc2)n2cncn2)cc1
7.3	CC[C@@H](c1ccc([N+](=O)[O-])cc1)[C@H](c1ccc(OC)cc1)n1ccnc1
10.5	COc1ccc([C@@H]([C@@H](Cc2ccc(Cl)cc2Cl)c2ccc(Cl)cc2)n2ccnc2)cc1
21	COc1ccc([C@H]([C@@H](Cc2ccc(Cl)cc2Cl)c2ccc(OC)cc2)n2ccnc2)cc1
32	COc1ccc([C@H](Cc2ccccc2Cl)n2cncn2)cc1
